Reference: US20110027354A1, “ANTI-PA[…]” (priority 2008, published 2011)
Entries after “also recorded” stand apart in the source; their conditions may differ.

Columns and labels:
mice = experiment: Locomotor activity after repeated treatment with drug alone; format: in vivo; conditions: repeated treatment i.p./day×7, selegiline or MPPE 2.5 or 5.0 mg/kg, MA 0.5 or 1.0 mg/kg; for locomotor activities: vs. saline
Description: Selegiline or […] was injected (2.5 or 5 mg/kg, i.p.) once a day for 7 consecutive days. Methamphetamine, a positive control, was also administered (0.5 or 1 mg/kg, i.p.) once a day for 7 days.
(§1) Locomotor activity measured for 30 min one day after the last MPTP administration using an automated video-tracking system (Noldus Information Technology, Wagenin, The Netherlands). Eight test boxes (40×40×30 cm high) were operated simultaneously by an IBM computer. Animals were studied individually during locomotion in each test box, where they were adapted for 5 min before starting the experiment. […] The distance traveled in cm by the animals in horizontal locomotor activity was analyzed. Data were collected and analyzed between 09:00 and 17:00 h (Kim et al., 2001).

MPTP-treated mice = experiment: MPTP-induced hypolocomotion (locomotor activity); format: in vivo; conditions: for effect on MPTP-induced hypolocomotor activity: 2.5 mg/kg/i.p./day×9, vs. MPTP alone
Description: as §1

[1] = system: dopamine (DA), DOPAC and HVA in the striatum; experiment: HPLC analysis of striatal DA, DOPAC and HVA; format: in vivo, mice; conditions: for effect on MPTP-induced increase of DA turnover rate / effect on MPTP-induced reduction of DOPAC / effect on MPTP-induced reduction of HVA / effect on MPTP-induced reduction of dopamine (DA): 2.5 mg/kg i.p., vs. MPTP alone; for effect on MPTP-induced reduction of dopamine (DA): 2.5 mg/kg; for levels of DA, DOPAC, HVA: drug alone (no MPTP)
Description: At 1 day after last MPTP injections mice were killed by cervical dislocation, the brains were removed and placed on an ice-cooled plate. Striatum was dissected and immediately frozen on dry ice and store at −70° C. until extraction. Brain regions obtained from each animal were weighed, ultrasonicated in 10% perchloric acid containing 10 ng/mg of the internal standard dihydroxybenzilamine, and centrifuged at 20,000 g for 10 min. The levels of DA and its metabolites 3,4-dihydroxyphenylacetic acid (DOPAC) and homovanillic acid (HVA) in brain tissue extracts were determined by HPLC coupled with electrochemical detection as described (Ali et al., 1994). Briefly, striatal tissues were sonicated in 0.2 M perchloric acid (20% W/V) containing the internal standard 3,4-dihydroxybenzylamine (10 mg wet tissue/ml) The homogenate was centrifuged and a 20-μl aliquot of the supernatant was injected into the HPLC equipped with a 3-μm C18 column. The mobile phase was comprised of 26 ml of acetonitrile, 21 ml of tetrahydrofuran and 960 ml of 0.15 M monochloroacetic acid (pH 3.0) containing 50 mg/l of EDTA and 200 mg/l of sodium octyl sulfate. The amount of DA, DOPAC and HVA were determined by comparison of peak height ratio of tissue sample with standards, and were expressed in nanograms per gram of wet weight of tissue.

[2] = system: tyrosine hydroxylase (TH); experiment: TH activity; format: in vivo, mice; conditions: for TH activity: drug alone (no MPTP); for effect on MPTP-induced decrease of TH activity: one day after final MPTP, vs. MPTP alone
[3] = system: tyrosine hydroxylase (TH); experiment: TH-immunoreactivity by immunocytochemistry; format: in vivo, mice; conditions: for effect on MPTP-induced decrease of TH-immunoreactivity (TH-IR): immunocytochemistry (ICC), vs. MPTP alone; for TH-immunoreactivity: drug alone (no MPTP)
Description: Animals were sacrified at 1 day after MPTP-treatment. They were anesthetized with 60% urethane and perfused transcardially with 200 ml of 50 mM phosphate buffered saline (PBS), followed by 50 ml of paraformaldehyde in PBS. The brain were fixed at 4° C. for 24 h in the same fixative and then cryoprotected in 30% sucrose. The brains were sectioned on a horizontal sliding microstome into 35 μm transverse free-floating sections.
The immunocytochemistry was performed as described previously (Kim et al., 2000a; Kim et al., 2000b). Briefly, prior to incubation with the primary antibodies, sections were preincubated with 0.3% hydrogen peroxide in PBS for 30 min (to block endogenous peroxidase activity), then in PBS containing 0.4% Triton X-100 for 20 min and 1% no: mal serum for 20 min. After a 48 h incubation with the primary antibody at 4° C., sections were incubated with the secondary biotinylated antisera (1:1000 dilution; Vector, Brulingame, Calif.) for 1 h, washed, and immersed in avidin-biotin-peroxidase complex (ABC Elite kit, Vector) for 1 hr. Sections were always washed three times with PBS between each incubation step. 3,3′-Diaminobenzidine (DAB) was used as the chromogen. The quantitative analyses were performed using a computer-based image analysis system (Optimas version 6.2; Neurolucida Program) (Kim et al., 1999).

[4] = system: tyrosine hydroxylase (TH); experiment: Western blotting for pan-TH and TH phosphorylation; format: in vivo, mice; conditions: for effect on MPTP-induced decrease of TH phosphorylation at Ser19, Ser31 and Ser40: pre-treatment; for effect on MPTP-induced decrease of TH phosphorylation at Ser19, Ser31 and Ser40 / effect on MPTP-induced decrease of TH-immunoreactivity (TH-IR): vs. MPTP alone
Description: (§2) The western blot assays were performed as described previously (thong et al., 1997). Tissues were homogenized in lysis buffer, containing 200 mM Tris HCl (pH 6.8), 1% SDS, 5 mM ethylene glycol tetraacetic acid, 5 mM ethylenediaminetetraacetic acid, 10% glycerol, 1× phosphatase inhibitor cocktail I, 1× protease inhibitor cocktail. The supernatant fraction was subsequently centrifuged at 30,000×g for 30 min. The resulting pellet was resuspended in the sample buffer. Proteins (20-50 ug/lane) were separated by 6%, 8%, 10% or 15% sodium dodecyl sulfate-polyacrylamide gel electrophoresis and transferred onto the nitrocellulose membranes. Following transfer, the nitrocellulose membranes were preincubated with 5% non-fat milk and incubated overnight at 4° C. with anti-β-actin (Sigma, 1:50000), anti-TH (Chemicon, 1:5000), anti-TH phosphoser19 (Chemicon, 1:5000), anti-TH phosphoser31 (Chemicon, 1:500), anti-TH phosphoser40 (Chemicon, 1:500), anti-F 4/80 (Serotec, 1:500), anti-BDNF (Chemicon, 1:500), anti-GDNF (Santa-Cruz, 1:250), anti-Akt (Cell signaling, 1:1000), anti-phospho Akt ser 473 (Cell signaling, 1:1000), anti-PI3K (Cell signaling, 1:1000), anti-phospho PI3K (Cell signaling, 1:500) and anti-α-synuclein (BD Transduction, 1:500) antibody. After incubation with primary antibody, membranes were incubated with the secondary anti-rabbit IgG, Horseradish Peroxidase (1:1000 dilution, Amersham) or anti-mouse IgG, Horseradish Peroxidase (1:1000, Sigma), or anti-goat IgG, Horseradish Peroxidase (1:1000, Sigma) for 2 h, washed. Subsequently visualized with the Amersham ECL system (Amersham, Arlington Heights, Ill., USA).

α-synuclein = experiment: Oligomergic α-synuclein expression (western blot); format: in vivo, mice; conditions: striatum; for effect on MPTP-induced increase in oligomergic α-synuclein: vs. MPTP alone
Description: as §2

[5] = system: glial cell line-derived neurotrophic factor (GDNF); experiment: GDNF expression (western blot); format: in vivo, mice; conditions: striatum; for effect on MPTP-induced reduction of GDNF expression: pre-treatment, vs. MPTP alone
Description: as §2

[6] = striatum and SN, vs. selegiline+MPTP

SMILES | locomotor patterns (mice) | locomotor activities (mice) | effect on MPTP-induced hypolocomotor activity (MPTP-treated mice) | effect on MPTP-induced increase of DA turnover rate [1] | effect on MPTP-induced reduction of DOPAC [1] | effect on MPTP-induced reduction of HVA [1] | effect on MPTP-induced reduction of dopamine (DA) [1] | levels of DA, DOPAC, HVA [1] | TH activity [2] | effect on MPTP-induced decrease of TH activity ([2]; striatum) | effect on MPTP-induced decrease of TH activity ([2]; substantia nigra (SN)) | effect on MPTP-induced decrease of TH-immunoreactivity (TH-IR) ([3]; SN) | TH-immunoreactivity [3] | effect on MPTP-induced decrease of TH-immunoreactivity (TH-IR) ([3]; striatum) | effect on MPTP-induced decrease of TH phosphorylation at Ser19, Ser31 and Ser40 ([4]; SN) | effect on MPTP-induced decrease of TH-immunoreactivity (TH-IR) ([4]; SN, western blotting) | effect on MPTP-induced decrease of TH phosphorylation at Ser19, Ser31 and Ser40 ([4]; striatum) | effect on MPTP-induced decrease of TH-immunoreactivity (TH-IR) ([4]; striatum, western blotting) | effect on MPTP-induced increase in oligomergic α-synuclein (α-synuclein) | effect on MPTP-induced reduction of GDNF expression [5] | also measured
C#CCN(C)CCc1ccccc1 [MPPE, N-methyl-N-propynyl-2-phenylethylamine] | comparable to those by saline; also recorded: did not show these behavioural side effects | did not significantly alter locomotor activities | significantly attenuated | attenuated | attenuated | attenuated | significantly attenuated | did not show any significant effect | did not show any significant effect | attenuated | attenuated | significantly attenuated | did not show any significant effect | attenuated | reversed | attenuated | reversed | attenuated | significantly attenuated | significantly attenuated | attenuation of MPTP-induced hypolocomotor activity compared with selegiline (MPTP-treated mice; 2.5 mg/kg i.p., vs. selegiline+MPTP): more pronounced in the MPPE-pretreated mice than selegiline-pretreated case; attenuation for DA level compared with selegiline ([1]; vs. selegiline+MPTP): more pronounced in the MPPE-treated mice; attenuation of DA turnover rate increase compared with selegiline ([1]; vs. selegiline+MPTP): more evident than by selegiline; attenuation of TH activity decrease compared with selegiline [2, 6]: more effective; attenuation of TH-IR decrease compared with selegiline ([3]; striatum and SN, ICC, vs. selegiline+MPTP): more evident; effect on TH phosphorylation at Ser19, Ser31 and Ser40 compared with selegiline [4, 6]: more effective; attenuation of TH-IR decrease compared with selegiline ([4]; striatum and SN, western blotting, vs. selegiline+MPTP): more evident; protection against α-synuclein increase compared with selegiline (α-synuclein; vs. selegiline+MPTP): more protective effect; enhancement of GDNF expression compared with selegiline ([5]; vs. selegiline+MPTP): more effective
C#CCN(C)[C@H](C)Cc1ccccc1 [selegiline, reference compound] | circling locomotor patterns | significantly increased | significantly attenuated | attenuated | attenuated | attenuated | significantly attenuated | did not show any significant effect | did not show any significant effect | attenuated | attenuated | significantly attenuated | did not show any significant effect | attenuated | reversed | attenuated | reversed | attenuated | significantly attenuated | significantly attenuated | locomotor patterns (mice; listed as Sel): typical circling locomotor patterns
